Results published in publication PMC6540015, “New Quinolone-Based Thiosemicarbazones Showing Activity Against Plasmodium falciparum and Mycobacterium tuberculosis” (Molecules, 2019).
Converted amounts (≈) assume the structure as drawn. Read-outs that look alike come from different tables or passages of the source.

Legend:
[1] = test system: 3D7 strain of Plasmodium falciparum; experiment: In vitro anti-plasmodial pLDH assay; format: cell-based
[2] = test system: M. tuberculosis H37Rv strain; experiment: microbe, parasite or virus in culture; format: cell-based; settings: Mycobacterium tuberculosis, concentration inhibiting 90% of bacterial population; for MIC: read-out: MIC90 H37Rv
[3] = Plasmodium falciparum, chloroquine sensitive strain 3D7 of P. falciparum, 48 h, na = not active, read-out: IC50 Pf 3D7
[4] = Plasmodium falciparum, 3D7, 48 h, read-out: IC50 Pf 3D7, chloroquine sensitive strain 3D7 of P. falciparum, na = not active

Row | Structure (SMILES) | IC50 [1, 3] [µM] | melting point [°C] | MIC90 [2] [µM] | MIC [2] [µM] | IC50 Pf 3D7 ([1]; chloroquine sensitive strain 3D7 of P. falciparum, 48 h, na = not active) | IC50 [1, 4] [µM] | IC50 ([1]; read-out: IC50 Pf 3D7, chloroquine sensitive strain 3D7 of P. falciparum, 48 h, na = not active) [µM]
1 | CCN(CC)CCCC(C)Nc1ccnc2cc(Cl)ccc12 (stereo not drawn) [CQ, Chloroquine, reference compound] | 0.012 | – | – | – | – | – | –
2 | CCOC(=O)c1c[nH]c2ccc(C(C)=O)cc2c1=O [Compound 8] | 4 | – | – | – | – | – | –
3 | CCn1cc(C(=O)NCCCn2ccnc2)c(=O)c2cc(/C(C)=N/NC(N)=S)ccc21 [Compound 11, (E)-N-(3-(1H-imidazol-1-yl)propyl)-6-(1-(2-carbamothioylhydrazono)ethyl)-1-ethyl-4-oxo-1,4-dihydroquinolone-3-carboxamide] | 3.7 | 187 to 189 | > 125 | > 125 | – | – | –
4 | CCn1cc(C(=O)NCCNCCO)c(=O)c2cc(/C(C)=N/NC(N)=S)ccc21 [Compound 12, (E)-6-(1-(2-carbamothioylhydrazono)ethyl)-1-ethyl-N-(2-((2-hydroxyethyl)amino)ethyl)-4-oxo-1,4-dihydroquinolone-3-carboxamide] | – | 183 to 185 | 73.4 (≈ 30.7 µg/mL) | 73.4 (≈ 30.7 µg/mL) | not active | – | –
5 | C/C(=N\NC(N)=S)c1ccc2c(c1)c(=O)c(C(=O)NCCNCCO)cn2Cc1ccccc1 [Compound 13, (E)-1-benzyl-6-(1-(2-carbamothioylhydrazono)ethyl)-N-(2-((2-hydroxyethyl)amino)ethyl)-4-oxo-1,4-dihydroquinolone-3-carboxamide] | – | 197 to 199 | 2.7 (≈ 1.3 µg/mL) | 2.7 (≈ 1.3 µg/mL) | – | 4.1 | –
6 | C/C(=N\NC(N)=S)c1ccc2c(c1)c(=O)c(C(=O)NCCNCCO)cn2Cc1ccc(Br)cc1 [Compound 14, (E)-1-(4-bromobenzyl)-6-(1-(2-carbamothioylhydrazono)ethyl)-N-(2-((2-hydroxyethyl)amino)ethyl)-4-oxo-1,4-dihydroquinolone-3-carboxamide] | – | 200 to 202 | 10.3 (≈ 5.76 µg/mL) | 10.3 (≈ 5.76 µg/mL) | – | 4 | 4.7
7 | C/C(=N\NC(N)=S)c1ccc2c(c1)c(=O)c(C(=O)NCCNCCO)cn2Cc1ccc(C(F)(F)F)cc1 [Compound 15, (E)-6-(1-(2-carbamothioylhydrazono)ethyl)-N-(2-((2-hydroxyethyl)amino)ethyl)-4-oxo-1-(4-(trifluoromethyl)benzyl)-1,4-dihydroquinolone-3-carboxamide] | – | 199 to 201 | 2 (≈ 1.1 µg/mL) | – | – | 1.2 | –
8 | C/C(=N\NC(N)=S)c1ccc2c(c1)c(=O)c(C(=O)NCCNCCO)cn2Cc1ccc(Cl)cc1Cl [Compound 16, (E)-6-(1-(2-carbamothioylhydrazono)ethyl)-1-(2,4-dichlorobenzyl)-N-(2-((2-hydroxyethyl)amino)ethyl)-4-oxo-1,4-dihydroquinolone-3-carboxamide] | – | 205 to 207 | 4.8 (≈ 2.64 µg/mL) | 4.8 (≈ 2.64 µg/mL) | – | 3.1 | –
9 | COCCNC(=O)c1cn(Cc2ccccc2)c2ccc(/C(C)=N/NC(N)=S)cc2c1=O [Compound 17, (E)-1-benzyl-6-(1-(2-carbamothioylhydrazono)ethyl)-N-(2-methoxyethyl)-4-oxo-1,4-dihydroquinolone-3-carboxamide] | – | 199 to 200 | 44.2 (≈ 20 µg/mL) | 44.2 (≈ 20 µg/mL) | – | 24.6 | –
10 | COCCNC(=O)c1cn(Cc2ccc(Br)cc2)c2ccc(/C(C)=N/NC(N)=S)cc2c1=O [Compound 18, (E)-1-(4-bromobenzyl)-6-(1-(2-carbamothioylhydrazono)ethyl)-N-(2-methoxyethyl)-4-oxo-1,4-dihydroquinolone-3-carboxamide] | – | 204 to 206 | 15 (≈ 7.96 µg/mL) | – | – | 9.9 | –
11 | COCCNC(=O)c1cn(Cc2ccc(Cl)cc2Cl)c2ccc(/C(C)=N/NC(N)=S)cc2c1=O [Compound 19, (E)-6-(1-(2-carbamothioylhydrazono)ethyl)-1-(2,4-dichlorobenzyl)-N-(2-methoxyethyl)-4-oxo-1,4-dihydroquinolone-3-carboxamide] | – | 209 to 211 | 10.2 (≈ 5.31 µg/mL) | – | – | – | –
12 | CCOC(=O)c1cn(Cc2ccc(Cl)cc2Cl)c2ccc(/C(C)=N/NC(N)=S)cc2c1=O [Compound 21, Ethyl-(E)-6-(1-(2-carbamothioylhydrazono)ethyl)-1-(2,4-dichlorobenzyl)-4-oxo-1,4-dihydroquinolone-3-carboxylate] | – | 211 to 213 | 31.6 (≈ 15.5 µg/mL) | 31.6 (≈ 15.5 µg/mL) | – | – | –
13 | CO[C@H]1/C=C/O[C@@]2(C)Oc3c(C)c(O)c4c(O)c(c(/C=N/N5CCN(C)CC5)c(O)c4c3C2=O)NC(=O)/C(C)=C\C=C\[C@H](C)[C@H](O)[C@@H](C)[C@@H](O)[C@@H](C)[C@H](OC(C)=O)[C@@H]1C [RF, Rifampicin, reference compound] | – | – | 0.062 (≈ 0.051 µg/mL) | – | – | – | –
